Data from ChEMBL document CHEMBL4177599, “The antitubercular activity of various nitro(triazole/imidazole)-based compounds” (Bioorg Med Chem, 2017).
pIC50: −log10 of the molar value. Values after ≈ are worked out from the molar mass of the structure shown.

Key:
Type in all cases: functional, organism-based
[1] = system: Mycobacterium tuberculosis; experiment: Antitubercular activity against isoniazid-resistant Mycobacterium tuberculosis H37Rv INH-R1 harboring katG Y155 mutant after 5 days
[2] = system: Mycobacterium tuberculosis; experiment: Antitubercular activity against rifampicin-resistant Mycobacterium tuberculosis H37Rv RIF-R1 harboring rpoB S522L mutant after 5 days
[3] = system: Mycobacterium tuberculosis; experiment: Antitubercular activity against fluoroquinolone-resistant Mycobacterium tuberculosis H37Rv harboring gyrB D94N mutant after 5 days
[4] = system: Mycobacterium tuberculosis; experiment: Antitubercular activity against isoniazid-resistant Mycobacterium tuberculosis INH-R2 ATCC 35822 after 5 days; conditions: INH-R2 ATCC 35822, 120 h
[5] = system: Mycobacterium tuberculosis; experiment: Antitubercular activity against rifampicin-resistant Mycobacterium tuberculosis H37Rv RIF-R2 ATCC 35828 after 5 days; conditions: H37Rv RIF-R2 ATCC 35828, 120 h

Row | Compound | pIC50 [1] | IC90 [1] [µM] | MIC [1] [µM] | pIC50 [2] | IC90 [2] [µM] | MIC [2] [µM] | pIC50 [3] | IC90 [3] [µM] | MIC [3] [µM] | pIC50 [4] | IC90 [4] [µM] | MIC [4] [µM] | pIC50 [5] | IC90 [5] [µM] | MIC [5] [µM]
1 | O=C(CCn1cnc([N+](=O)[O-])n1)Nc1cccc(-c2ccccc2)c1 | 5.07 | 15 | 15 (≈ 5.06 µg/mL) | 5.39 | 8 | 7.7 (≈ 2.6 µg/mL) | 5.17 | 14 | 13 (≈ 4.39 µg/mL) | 5.21 | 11 | 10 (≈ 3.37 µg/mL) | 5.09 | 11 | 12 (≈ 4.05 µg/mL)
2 | O=C(Cn1cnc([N+](=O)[O-])n1)Nc1ccc(Oc2ccc(Cl)cc2)cc1 | 4.27 | 76 | 91 (≈ 34 µg/mL) | 4.24 | 91 | 98 (≈ 36.6 µg/mL) | 4.25 | 84 | 94 (≈ 35.1 µg/mL) | 4.44 | 54 | 55 (≈ 20.6 µg/mL) | 4.26 | 150 | 100 (≈ 37.4 µg/mL)
3 | O=C(Cn1ccnc1[N+](=O)[O-])Nc1ccc(Oc2ccc(Cl)cc2)cc1 | < 4.00 | > 100 | >200 | 4.32 | > 100 | >200 | < 4.00 | > 100 | >200 | < 4.00 | > 100 | > 200 | 4.25 | > 100 | > 200
4 | O=C(NCCCCn1cnc([N+](=O)[O-])n1)c1sc2ccccc2c1Cl | – | – | 7.5 (≈ 2.85 µg/mL) | – | – | 7.9 (≈ 3 µg/mL) | – | – | 7.1 (≈ 2.7 µg/mL) | – | – | 7.3 (≈ 2.77 µg/mL) | – | – | 6.4 (≈ 2.43 µg/mL)
5 | O=C(Cn1cnc([N+](=O)[O-])n1)Nc1ccc(Oc2ccccc2)cc1 | 4.14 | 130 | 125 (≈ 42.4 µg/mL) | 4.15 | 150 | 133 (≈ 45.1 µg/mL) | 4.15 | 130 | 200 (≈ 67.9 µg/mL) | 4.18 | 110 | > 200 | 4.26 | 170 | 116 (≈ 39.4 µg/mL)
6 | O=C(Cn1cnc([N+](=O)[O-])n1)Nc1ccc(Cc2ccccc2)cc1 | 4.48 | 47 | 50 (≈ 16.9 µg/mL) | 4.57 | 40 | 44 (≈ 14.8 µg/mL) | 4.55 | 32 | 30 (≈ 10.1 µg/mL) | 4.54 | 37 | 31 (≈ 10.5 µg/mL) | 4.47 | 44 | 48 (≈ 16.2 µg/mL)
7 | O=C(Cn1cnc([N+](=O)[O-])n1)Nc1cccc(-c2ccccc2)c1 | 4.51 | 43 | 48 (≈ 15.5 µg/mL) | 4.62 | 40 | 35 (≈ 11.3 µg/mL) | 4.54 | 39 | 28 (≈ 9.05 µg/mL) | 4.59 | 31 | 28 (≈ 9.05 µg/mL) | 4.54 | 33 | 33 (≈ 10.7 µg/mL)
8 | NNC(=O)c1ccncc1 [ISONIAZID] | – | – | >200 | – | – | 0.31 (≈ 0.0425 µg/mL) | – | – | 0.35 (≈ 0.048 µg/mL) | – | – | > 200 | – | – | 0.67 (≈ 0.0919 µg/mL)
9 | O=C(CCn1cnc([N+](=O)[O-])n1)Nc1cccc(OCc2ccccc2)c1 | 5.35 | 5.9 | 6.2 (≈ 2.28 µg/mL) | 5.66 | 3.7 | 3.6 (≈ 1.32 µg/mL) | 5.47 | 6.2 | 6 (≈ 2.2 µg/mL) | 5.49 | 5.6 | 5.7 (≈ 2.09 µg/mL) | 5.39 | 5.2 | 5.6 (≈ 2.06 µg/mL)
10 | O=C(CCn1cnc([N+](=O)[O-])n1)Nc1ccc(Oc2ccccc2)cc1 | 4.42 | 71 | 59 (≈ 20.8 µg/mL) | 4.55 | 42 | 48 (≈ 17 µg/mL) | 4.49 | 68 | 62 (≈ 21.9 µg/mL) | 4.59 | 53 | 56 (≈ 19.8 µg/mL) | 4.54 | 40 | 48 (≈ 17 µg/mL)
11 | O=C(Cn1ccnc1[N+](=O)[O-])Nc1ccc(Oc2ccc(F)cc2)cc1 | 4.19 | > 100 | >200 | 4.34 | > 100 | >200 | 4.12 | 190 | 200 (≈ 71.3 µg/mL) | 4.15 | > 100 | > 200 | 4.11 | > 200 | > 200
12 | O=C(NCCCCn1cnc([N+](=O)[O-])n1)c1nc2ccccc2s1 | – | – | 11.1 (≈ 3.84 µg/mL) | – | – | 8.9 (≈ 3.08 µg/mL) | – | – | 8.2 (≈ 2.84 µg/mL) | – | – | 7.9 (≈ 2.74 µg/mL) | – | – | 7.9 (≈ 2.74 µg/mL)
13 | CO[C@H]1/C=C/O[C@@]2(C)Oc3c(C)c(O)c4c(O)c(c(/C=N/N5CCN(C)CC5)c(O)c4c3C2=O)NC(=O)/C(C)=C\C=C\[C@H](C)[C@H](O)[C@@H](C)[C@@H](O)[C@@H](C)[C@H](OC(C)=O)[C@@H]1C [RIFAMPIN] | – | – | 0.012 (≈ 0.00988 µg/mL) | – | – | 7.2 (≈ 5.93 µg/mL) | – | – | >0.04 | – | – | 0.011 (≈ 0.00905 µg/mL) | – | – | > 50
14 | O=C(Cn1cnc([N+](=O)[O-])n1)N1CCN(C(c2ccccc2)c2ccc(Cl)cc2)CC1 (stereo not given) | 4.32 | 82 | 79 (≈ 34.8 µg/mL) | 4.57 | 32 | 42 (≈ 18.5 µg/mL) | 4.34 | 78 | 72 (≈ 31.7 µg/mL) | 4.54 | 35 | 45 (≈ 19.8 µg/mL) | 4.33 | 68 | 71 (≈ 31.3 µg/mL)
15 | O=C(CCn1cnc([N+](=O)[O-])n1)Nc1ccc(Oc2ccc(F)cc2)cc1 | 4.54 | 65 | 50 (≈ 18.6 µg/mL) | 4.80 | 23 | 25 (≈ 9.28 µg/mL) | 4.59 | 48 | 46 (≈ 17.1 µg/mL) | 4.72 | 37 | 36 (≈ 13.4 µg/mL) | 4.68 | 53 | 58 (≈ 21.5 µg/mL)
16 | O=C(Cn1cnc([N+](=O)[O-])n1)Nc1ccc(N2CCCCC2)cc1 | 4.47 | 53 | 54 (≈ 17.8 µg/mL) | 4.60 | 41 | 36 (≈ 11.9 µg/mL) | 4.49 | 47 | 50 (≈ 16.5 µg/mL) | 4.52 | 44 | 48 (≈ 15.9 µg/mL) | 4.44 | 49 | 51 (≈ 16.8 µg/mL)
17 | O=C(Cn1cnc([N+](=O)[O-])n1)N1CCN(Cc2ccc(Cl)c(Cl)c2)CC1 | 5.05 | 14 | 14 (≈ 5.59 µg/mL) | 5.31 | 8.3 | 7.7 (≈ 3.07 µg/mL) | 5.13 | 11 | 12 (≈ 4.79 µg/mL) | 5.14 | 12 | 12 (≈ 4.79 µg/mL) | 5.03 | 12 | 12 (≈ 4.79 µg/mL)
18 | O=C(Cn1ccnc1[N+](=O)[O-])Nc1ccc(Oc2ccccc2)cc1 | 4.12 | 140 | >200 | 4.08 | > 200 | >200 | 4.13 | > 200 | >200 | 4.10 | > 200 | > 200 | 3.96 | > 200 | > 200
19 | O=C(CCn1cnc([N+](=O)[O-])n1)Nc1ccc(Oc2ccc(Cl)cc2)cc1 | 4.60 | 53 | 46 (≈ 17.8 µg/mL) | 4.82 | 22 | 24 (≈ 9.31 µg/mL) | 4.62 | 42 | 40 (≈ 15.5 µg/mL) | 4.74 | 32 | 31 (≈ 12 µg/mL) | 4.77 | 30 | 29 (≈ 11.2 µg/mL)
20 | O=C(Cn1cnc([N+](=O)[O-])n1)N1CCN(Cc2ccc(C(F)(F)F)cc2)CC1 | 4.49 | 44 | 48 (≈ 19.1 µg/mL) | 4.68 | 32 | 31 (≈ 12.3 µg/mL) | 4.57 | 31 | 28 (≈ 11.2 µg/mL) | 4.59 | 32 | 28 (≈ 11.2 µg/mL) | 4.49 | 41 | 45 (≈ 17.9 µg/mL)
21 | C[C@H]1COc2c(N3CCN(C)CC3)c(F)cc3c(=O)c(C(=O)O)cn1c23.C[C@H]1COc2c(N3CCN(C)CC3)c(F)cc3c(=O)c(C(=O)O)cn1c23.O [LEVOFLOXACIN] | – | – | 1.1 | – | – | 0.85 | – | – | 14 | – | – | 1.3 | – | – | 1.4
22 | CC(O)(Cn1cnc([N+](=O)[O-])n1)c1ccc(-c2ccc(C#N)cc2)cc1 (stereo not given) | – | – | >200 | – | – | >200 | – | – | >200 | – | – | > 200 | – | – | > 200
23 | O=C(Cn1cnc([N+](=O)[O-])n1)Nc1nc(-c2ccc(F)c(F)c2)cs1 | 4.49 | 47 | 50 (≈ 18.3 µg/mL) | 4.60 | 40 | 39 (≈ 14.3 µg/mL) | 4.51 | 44 | 48 (≈ 17.6 µg/mL) | 4.51 | 45 | 49 (≈ 17.9 µg/mL) | 4.52 | 38 | 45 (≈ 16.5 µg/mL)
